Test results from publication PMC10600005 (Nature, 2023).

Target: T1, nuclease P1 (P1 nuclease) (Penicillium citrinum, UniProt P24289)
T1 construct: commercial enzyme (New England Biolabs)
T1 sequence (P24289 1-270): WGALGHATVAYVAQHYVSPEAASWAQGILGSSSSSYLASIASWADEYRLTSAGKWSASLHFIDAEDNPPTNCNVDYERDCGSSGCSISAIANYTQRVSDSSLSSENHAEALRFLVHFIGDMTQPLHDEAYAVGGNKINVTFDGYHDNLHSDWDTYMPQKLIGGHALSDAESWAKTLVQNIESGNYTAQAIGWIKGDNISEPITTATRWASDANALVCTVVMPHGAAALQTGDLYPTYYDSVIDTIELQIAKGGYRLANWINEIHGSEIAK
Experiment: HPLC product analysis
Type: biochemical
Settings: 50 mM sodium acetate pH 5.5, 37 C, 1 h, 100 uM substrate

| Compound | HPLC product analysis | HPLC product analysis (partial degradation) |
| --- | --- | --- |
| Nc1ncnc2c1ncn2[C@@H]1O[C@H](COP(=O)(O)O[C@H]2[C@@H](O)[C@H](n3cnc4c(N)ncnc43)O[C@@H]2CSCC[C@H](N)C(=O)O)[C@@H](O)[C@H]1O [SAH-AMP] | SAH-AMP was completely degraded by nuclease P1 |  |
| C[S+](CC[C@H](N)C(=O)O)C[C@H]1O[C@@H](n2cnc3c(N)ncnc32)[C@H](O)[C@@H]1OP(=O)(O)OC[C@H]1O[C@@H](n2cnc3c(N)ncnc32)[C@H](O)[C@@H]1O (some centres unmarked) [SAM-AMP] |  | we observed only partial degradation of SAM-AMP |
